Reference: ChEMBL document CHEMBL3286174, “Orally active 7-substituted (4-benzylphthalazin-1-yl)-2-methylpiperazin-1-yl]nicotinonitriles as active-site inhibitors of sphingosine 1-phosphate lyase for the treatment of multiple sclerosis” (J Med Chem, 2014)

What was measured:
[1] = target: T1, Sphingosine-1-phosphate lyase 1 (Homo sapiens, UniProt O95470); assay: Inhibition of S1PL (unknown origin)
T1 sequence (O95470 whole entry): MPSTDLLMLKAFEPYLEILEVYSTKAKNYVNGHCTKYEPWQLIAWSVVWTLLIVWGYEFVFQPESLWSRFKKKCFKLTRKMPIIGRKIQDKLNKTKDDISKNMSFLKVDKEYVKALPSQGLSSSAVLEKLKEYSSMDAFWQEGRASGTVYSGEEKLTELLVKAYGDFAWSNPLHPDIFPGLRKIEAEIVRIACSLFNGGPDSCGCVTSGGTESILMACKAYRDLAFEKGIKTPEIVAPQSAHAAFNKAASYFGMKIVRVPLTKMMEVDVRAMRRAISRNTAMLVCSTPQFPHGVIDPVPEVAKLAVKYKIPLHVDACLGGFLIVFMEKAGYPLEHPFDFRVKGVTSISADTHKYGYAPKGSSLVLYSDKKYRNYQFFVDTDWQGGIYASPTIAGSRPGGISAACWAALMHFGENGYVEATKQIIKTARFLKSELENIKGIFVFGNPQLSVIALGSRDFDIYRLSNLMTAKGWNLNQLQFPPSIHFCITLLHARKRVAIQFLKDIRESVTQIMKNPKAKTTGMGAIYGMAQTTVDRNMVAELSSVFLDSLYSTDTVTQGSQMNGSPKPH

[2] = target: T1, Sphingosine-1-phosphate lyase 1; assay: biochemical
Description: Inhibition of human recombinant S1PL (62 to 568) expressed in Sf9 insect cells using S1P as substrate after 1 hr

Protein smoothened = Protein smoothened (Homo sapiens, UniProt Q99835); assay: Antagonist activity at smoothened (unknown origin)
[3] = Blood clearance in Sprague-Dawley rat at 1 mg/kg, iv; type: ADME, organism-based; design: dose 1 mg/kg, route intravenous; details: whole blood
[4] = Half life in Sprague-Dawley rat at 1 mg/kg, iv; type: ADME, organism-based; design: dose 1 mg/kg, route intravenous; details: in vivo
[5] = AUC (0 to infinity) in Sprague-Dawley rat at 3 mg/kg, po; type: ADME, organism-based, Plasma; design: time infinity, dose 3 mg/kg, route oral; details: blood
[6] = Cmax in Sprague-Dawley rat at 3 mg/kg, po; type: ADME, organism-based; design: dose 3 mg/kg, route oral; details: in vivo
[7] = Tmax in Sprague-Dawley rat at 3 mg/kg, po; type: ADME, organism-based; design: dose 3 mg/kg, route oral; details: in vivo
[8] = Oral bioavailability in Sprague-Dawley rat at 3 mg/kg; type: ADME, organism-based; details: in vivo
Rattus norvegicus [9] = assay: Reduction of peripheral CD4+ T cell level in Wistar rat at 50 mg/kg, po after 14 to 24 hrs by flow cytometry analysis; type: functional; design: scale not given: the % may be the effect or the level left
Rattus norvegicus [10] = assay: Reduction of peripheral CD4+ and CD8+ T cell level in Wistar rat at 2 mg/kg, po administered ever 12 hrs for 4 times measured 12 hrs after last dose by flow cytometry analysis; type: functional; design: scale not given: the % may be the effect or the level left
Rattus norvegicus [11] = assay: Reduction of peripheral B cell level in Wistar rat at 2 mg/kg, po administered ever 12 hrs for 4 times measured 12 hrs after last dose by flow cytometry analysis; type: functional; design: scale not given: the % may be the effect or the level left
[12] = Plasma concentration in Wistar rat at 2 mg/kg, po administered ever 12 hrs for 4 times measured 12 hrs after last dose; type: ADME, organism-based; design: dose 2 mg/kg, route oral
[13] = Drug level in blood of incomplete Freund's adjuvant-induced autoimmune encephalomyelitis DA rat model at 2 mg/kg, po bid administered 2 days before the induction of EAE; type: organism-based; design: dose 2 mg/kg, route oral; details: whole blood, read-out: Drug uptake
[14] = Drug level in brain of incomplete Freund's adjuvant-induced autoimmune encephalomyelitis DA rat model at 2 mg/kg, po bid administered 2 days before the induction of EAE; type: organism-based; design: dose 2 mg/kg, route oral; details: read-out: Drug uptake
Rattus norvegicus [15] = assay: Antiinflammatory activity in incomplete Freund's adjuvant-induced autoimmune encephalomyelitis DA rat model assessed as S1P level in lymph node at 2 mg/kg, po bid administered 2 days before the induction of EAE relative to control; type: functional
Rattus norvegicus [16] = assay: Antiinflammatory activity in incomplete Freund's adjuvant-induced autoimmune encephalomyelitis DA rat model assessed as S1P level in brain at 2 mg/kg, po bid administered 2 days before the induction of EAE; type: functional

Protein smoothened, sequence (Q99835 whole entry): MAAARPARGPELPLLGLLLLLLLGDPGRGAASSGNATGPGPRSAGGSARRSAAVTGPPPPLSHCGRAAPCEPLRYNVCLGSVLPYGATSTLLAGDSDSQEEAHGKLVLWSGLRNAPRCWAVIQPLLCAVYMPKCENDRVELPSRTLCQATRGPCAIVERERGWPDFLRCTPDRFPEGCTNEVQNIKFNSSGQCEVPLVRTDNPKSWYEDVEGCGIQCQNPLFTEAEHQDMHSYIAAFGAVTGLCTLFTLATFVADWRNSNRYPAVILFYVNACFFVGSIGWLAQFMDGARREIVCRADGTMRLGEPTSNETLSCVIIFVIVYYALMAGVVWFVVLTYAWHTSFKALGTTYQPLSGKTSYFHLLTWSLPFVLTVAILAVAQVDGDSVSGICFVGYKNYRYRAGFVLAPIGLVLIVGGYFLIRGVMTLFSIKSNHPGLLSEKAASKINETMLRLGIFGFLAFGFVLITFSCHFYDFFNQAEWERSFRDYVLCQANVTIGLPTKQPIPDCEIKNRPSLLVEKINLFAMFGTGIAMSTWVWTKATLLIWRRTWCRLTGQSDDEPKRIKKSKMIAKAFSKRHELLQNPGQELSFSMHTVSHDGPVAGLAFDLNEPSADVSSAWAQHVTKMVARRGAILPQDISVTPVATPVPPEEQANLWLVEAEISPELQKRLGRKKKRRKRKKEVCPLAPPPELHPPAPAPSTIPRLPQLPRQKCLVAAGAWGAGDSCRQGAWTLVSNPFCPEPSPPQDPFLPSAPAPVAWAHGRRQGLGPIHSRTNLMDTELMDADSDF

IC50 [2]	SMILES	further results
17 µM	CCCCCCCCc1ccc(CCC(N)(CO)CO)cc1 [FINGOLIMOD]	IC50 [1]: 17 µM
> 30 µM	C[C@@H]1CN(c2nnc(Cl)c3ccccc23)CCN1c1ccc(C#N)cn1	–
> 30 µM	C[C@H]1CN(c2nnc(Cc3ccccc3)c3ccccc23)CCN1c1ccc(C#N)cn1	–
0.21 µM	C[C@@H]1CN(c2nnc(Cc3ccccc3)c3ccc(Cl)cc23)CCN1c1ccc(C#N)cn1	IC50 (Protein smoothened): 0.44 µM; clearance [3]: 23 mL/min/kg; half-life [4]: 9.1 h; AUC(0-inf) [5]: 1.3 µM·h; Cmax [6]: 99 nM; Tmax [7]: 5 h; bioavailability [8]: 26%; Activity (Rattus norvegicus [9]): >80%; Activity (Rattus norvegicus [10]): >95%; Activity (Rattus norvegicus [11]): 70%; concentration at 12 h [12]: 400 nM; concentration at 48 h [13]: 840 nM; concentration at 48 h [14]: 610 nM; fold change (FC) (Rattus norvegicus [15]): 150; Activity (Rattus norvegicus [16]): 2.4 pmol/mg
> 30 µM	C[C@@H]1CN(c2nnc(-c3ccccc3)c3ccccc23)CCN1c1ccc(C#N)cn1	–
> 30 µM	N#Cc1ccc(N2CCN(c3nnc(Cc4ccccc4)c4ccccc34)CC2CO)nc1 (single isomer, unassigned)	–
–	C/C(=N\O)c1nc([C@@H](O)[C@H](O)[C@H](O)CO)c[nH]1 [LX-2931]	IC50 [1]: > 100 µM
> 30 µM	C[C@@H]1CN(c2nnc(Cc3ccccc3)c3ccccc23)CCN1c1ccc(C(=O)O)cn1	–
–	CC(=O)c1nc([C@@H](O)[C@H](O)[C@H](O)CO)c[nH]1	IC50 [1]: > 100 µM
30 µM	C[C@@H]1CN(c2nnc(CCc3ccccc3)c3ccccc23)CCN1c1ccc(C#N)cn1	–
2.4 µM	C[C@@H]1CN(c2nnc(Cc3ccccc3)c3ccccc23)CCN1c1ccc(C#N)cn1	–
1.3 µM	C[C@@H]1CN(c2nnc(Cc3ccccc3)c3cc(C#N)ccc23)CCN1c1ccc(C#N)cn1	–
3.4 µM	CCOC(=O)c1ccc(N2CCN(c3nnc(Cc4ccccc4)c4ccccc34)C[C@H]2C)nc1	–
0.74 µM	C[C@@H]1CN(c2nnc(Cc3ccccc3)c3ccccc23)CCN1c1ccc([N+](=O)[O-])cn1	–
1.7 µM	CC[C@@H]1CN(c2nnc(Cc3ccccc3)c3ccccc23)CCN1c1ccc(C#N)cn1	–
2.5 µM	CC(C)[C@@H]1CN(c2nnc(Cc3ccccc3)c3ccccc23)CCN1c1ccc(C#N)cn1	–
2.3 µM	C[C@@H]1CN(c2nnc(Cc3ccccc3)c3cc(Cl)ccc23)CCN1c1ccc(C#N)cn1	–
–	C[C@@H]1CN(c2nnc(Cc3ccccc3)c3ccc(C#N)cc23)CCN1c1ccc(C#N)cn1	IC50 (Protein smoothened): > 25 µM
> 30 µM	N#Cc1ccc(N2CCN(c3nnc(Cc4ccccc4)c4ccccc34)CC2)nc1	–
12 µM	C[C@@H]1CN(c2nnc(Cc3ccccc3)c3cc(C(F)(F)F)ccc23)CCN1c1ccc(C#N)cn1	–
30 µM	C[C@@H]1CN(c2nnc(Cc3ccccc3)c3ccccc23)CCN1c1ccc(C(F)(F)F)cn1	–
0.1 µM	C[C@@H]1CN(c2nnc(Cc3ccccc3)c3ccc(C(F)(F)F)cc23)CCN1c1ccc(C#N)cn1	–
